Reference: paper PMC4596572, “Ligand Discovery for the Alanine-Serine-Cysteine Transporter (ASCT2, SLC1A5) from Homology Modeling and Virtual Screening” (PLoS Computational Biology, 2015)
“And” between values parts separate entries of the source, which are not always exact repeats. Equal values may be shown once.

Assays:
[1] = molecular target: T1, rat ASCT2 (Rattus norvegicus, UniProt D3ZJ25); assay: Whole-cell patch-clamp recording of ASCT2-associated anion current in transfected HEK293 cells; format: cell-based; conditions: for Anion current activity: at the maximum concentration tested, 500 μM; for Anion current response / ligand character: whole-cell current, result in words; for Km: apparent Km for the active compounds from anion current dose response, called Ki in text for the inhibitors L-DOPS and γ-FBP; for Imax, maximum currents relative to 1 mM alanine: whole-cell anion current, membrane potential 0 mV, internal 130 mM NaSCN and 10 mM alanine, negative = outward current (inhibitor)
T1 construct: The coding region of the cDNA was subcloned into the EcoRI site of the pBK-CMV vector; expressed in transfected cells; host or cells: HEK293 (human embryonic kidney), transient transfection, pBK-CMV vector
T1 sequence (D3ZJ25 1-555): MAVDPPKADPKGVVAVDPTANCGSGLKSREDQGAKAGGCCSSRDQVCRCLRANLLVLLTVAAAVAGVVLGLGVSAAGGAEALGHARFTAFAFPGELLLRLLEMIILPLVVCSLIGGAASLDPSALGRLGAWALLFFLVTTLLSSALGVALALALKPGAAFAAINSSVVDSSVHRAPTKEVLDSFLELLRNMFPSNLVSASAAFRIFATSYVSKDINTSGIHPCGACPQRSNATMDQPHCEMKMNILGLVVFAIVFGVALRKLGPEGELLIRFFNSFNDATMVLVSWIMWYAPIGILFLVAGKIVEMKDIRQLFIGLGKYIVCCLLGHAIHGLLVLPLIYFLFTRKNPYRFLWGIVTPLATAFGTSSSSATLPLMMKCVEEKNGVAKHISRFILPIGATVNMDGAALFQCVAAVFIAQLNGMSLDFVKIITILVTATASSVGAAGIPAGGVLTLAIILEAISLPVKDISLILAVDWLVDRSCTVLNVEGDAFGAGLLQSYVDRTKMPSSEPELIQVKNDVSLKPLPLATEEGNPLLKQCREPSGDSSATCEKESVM
Text: (§1) We used transporter-mediated anion current as a measure of transport/inhibition activity […] We have previously shown that anion current is a measure of transport activity, due to the kinetic coupling of transport and anion flux, and this fact is also well established for the homologous glutamate transporters, which have a much more rigorously determined pharmacology. Anion current is activated when the transporter visits certain states in the transport cycle, such as the fully Na^+/substrate occupied state (substrate-induced anion conductance), or the Na^+-bound state (leak conductance). Thus, transported substrates induce anion current and non-transported inhibitors block the leak anion current. […] Functional characterization by patch clamping is a powerful approach when combined with virtual screening that prioritizes molecules from large libraries, but precludes screening of large amounts of compounds due to its labor-intensive nature.
cDNA coding for rat ASCT2 was kindly provided by S. Bröer. The coding region of the cDNA was subcloned into the EcoRI site of the pBK-CMV vector (Stratagene). The cDNA construct was used to transiently transfect human embryonic kidney cells (HEK293, ATCC No. CGL 1573) with leptrime reagent (Polyplus, Ilkrich, France). Transfection was performed as detailed in the supplier’s instructions. Electrophysiological recordings were performed 24–48 h after transfection.
ASCT2-associated whole-cell currents were recorded with an Adams & List EPC7 amplifier (HEKA, Lambrecht, Germany) using voltage-clamp conditions. Open-tip electrode resistances were 2–3 MΩ and the series resistance (R S) was 5–8 MΩ. R S was not compensated in the recordings, as compensation had no effect on the magnitude of the observed currents. The extracellular bath solution contained (in mM): 140 NaMES, 2 MgGluconate2, 2 CaGluconate2, and 10 HEPES (MES = methanesulfonic acid, pH 7.4 / NaOH). The pipette solution contained (in mM): 130 NaSCN, 2 MgCl2, 10 EGTA, 10 HEPES, and 10 L-alanine/cysteine (pH 7.3 / NaOH). Using this intracellular solution, the transporters operate in the Na^+/alanine exchange mode. Here, external alanine is exchanged with internal alanine in the absence of net transport. The exchange mode is associated with the activation of an uncoupled anion current, which was used as an indirect measure of transport activity. The currents were low pass filtered at 3 kHz (EPC7 built-in filter) and digitized with a digitizer board (Digidata 1200, Axon Instruments, Foster City, CA, USA) at a sampling rate of 10–50 kHz (controlled by software, Axon PClamp7). All experiments were performed at room temperature. Rapid solution exchange was essentially performed as described previously. Briefly, substrates and inhibitors were applied to the ASCT2-expressing HEK293 cells with a quartz tube (350 μm tube diameter) positioned at a distance of ≈0.5 mm to the cell. The linear flow rate of the solutions emerging from the opening of the tube was approximately 5–10 cm/s.

[2] = Solubility in water; format: physicochemical; conditions: required 5% DMSO at concentrations higher than 1 mM
[3] = molecular target: T2, ASCT2 mediated glutamine uptake in C8161 melanoma cells (Homo sapiens, UniProt Q15758); set-up: method as in PMID 24531984; conditions: cited from earlier work
T2 construct: C8161 cells (1 × 10^5/well) were incubated with [^3H]-L-glutamine; endogenous in cells; host or cells: C8161 human melanoma cell line
T2 sequence (Q15758 1-541): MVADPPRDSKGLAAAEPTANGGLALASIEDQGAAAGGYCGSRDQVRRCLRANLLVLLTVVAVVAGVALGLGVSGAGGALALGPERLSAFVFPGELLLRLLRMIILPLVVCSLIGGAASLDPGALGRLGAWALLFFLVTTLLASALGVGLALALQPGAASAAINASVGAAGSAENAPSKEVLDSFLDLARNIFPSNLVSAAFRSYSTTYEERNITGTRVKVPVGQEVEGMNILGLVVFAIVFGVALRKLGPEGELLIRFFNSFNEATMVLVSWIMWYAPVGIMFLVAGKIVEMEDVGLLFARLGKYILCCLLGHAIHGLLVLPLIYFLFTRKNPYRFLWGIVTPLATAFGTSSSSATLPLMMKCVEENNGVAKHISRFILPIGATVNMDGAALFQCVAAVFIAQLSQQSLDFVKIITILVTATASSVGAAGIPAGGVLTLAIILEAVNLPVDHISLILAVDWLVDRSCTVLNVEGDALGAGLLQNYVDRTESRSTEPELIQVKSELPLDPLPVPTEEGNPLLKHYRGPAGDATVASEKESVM

[4] = molecular target: T3, ASCT2 (Rattus norvegicus, UniProt D3ZJ25); assay: Voltage-jump exchange-mediated transient transport current in ASCT2-expressing cells; format: cell-based; conditions: benzylserine 5 mM (S2 Fig)
T3 construct: expressed in transfected cells
T3 sequence (D3ZJ25 1-555): T1 sequence (D3ZJ25 1-555)
Text: as §1
Supplementary file pcbi.1004477.s002.pdf: S2 Fig Exchange current is mediated by a transported substrate, but not by a non-transported inhibitor. Voltage jumps induce transport-mediated exchange current (due to voltage-dependent re-equilibration of the translocation equilibrium) in the presence of the transported substrate alanine (1 mM, black trace), but not in the presence of the non-transported inhibitor benzylserine (5 mM, red trace). […]

For `Cc1ccc2[nH]c(C(=O)O)c(CN(C)Cc3ncc[nH]3)c2c1` [3-{[(1H-imidazol-2-ylmethyl)(methyl)amino]methyl}-5-methyl-1H-indole-2-carboxylic acid], the Anion current activity [1] was “inactive” and the Solubility in water [2] was “poorly soluble in water”.
With `O=C(O)C1CC(OCc2ccccc2)CN1` (stereo not shown) [4-hydroxyproline-benzylether] the “Anion current response / ligand character” value [1] was “not significantly different from zero”.
In the case of `CC(C)(N)C(=O)O` [AIB], the Anion current response ([1]; at concentrations up to 5 mM) is reported as “did not elicit any significant response”.
In the case of `N[C@H](C(=O)O)[C@@H]1CC(Cl)=NO1` [Acivicin, reference compound], the Km [1] is reported as 5100 ± 1500 µM and the “Imax, maximum currents relative to 1 mM alanine” value [1] is reported as 0.45 ± 0.03.
With `C[C@H](N)C(=O)O` [Alanine] the Km [1] was 410 ± 20 µM and the “Imax, maximum currents relative to 1 mM alanine” value [1] was 1.
For `N[C@H](C(=O)O)[C@H](O)c1ccc(O)c(O)c1` [L-DOPS, reference compound], the Km [1] was 1950 ± 900 µM, the Ki ([1]; apparent affinity, inhibition of leak anion conductance, read-out: Ki) was roughly 2 mM and the “Inhibition of alanine-induced responses” value ([1]; at concentrations up to 5 mM) was “unable to significantly inhibit alanine-induced responses”. The “Imax, maximum currents relative to 1 mM alanine” value [1] was -0.03 ± 0.01 and the “Anion current response / ligand character” value [1] was “weak inhibitor”.
In the case of `O=C(O)[C@H](Cc1c[nH]c2ccccc12)NCCc1ccccc1` [N-(2-phenylethyl)tryptophan], the Anion current activity [1] is reported as “inactive” and the Solubility in water [2] is reported as “poorly soluble in water”.
In the case of `CC(C)(S)[C@@H](N)C(=O)O` [Penicillamine, reference compound], the Km [1] is reported as 1370 ± 680 µM, the “Imax, maximum currents relative to 1 mM alanine” value [1] is reported as 0.68 ± 0.08 and the “Anion current response / ligand character” value [1] is reported as “activated inwardly-directed anion currents”.
In the case of `N[C@@H](COCc1ccccc1)C(=O)O` [benzylserine], the IC50 [3] is given as 5.3 mM and the “Exchange-mediated transient transport currents upon voltage jumps” value [4] is given as “unable to elicit exchange-mediated transient transport currents”.
For `O=C(O)[C@H]1NCC[C@H]1O` [cis-3-hydroxyproline], the Km [1] was 19 ± 10 µM, the “Imax, maximum currents relative to 1 mM alanine” value [1] was 1.39 and 1.39 ± 0.1 and the “Anion current response / ligand character” value [1] was “activated inwardly-directed anion currents”.
In the case of `O=C(O)[C@@H]1CCCN1` [proline, reference compound], the “Anion current response / ligand character” value [1] is reported as “not an ASCT2 ligand”.
For `O=C(O)C1NCCS1` (stereo not shown) [thiazolidine-2-carboxylate], the Anion current response ([1]; at concentrations up to 5 mM) was “did not elicit any significant response”.
